# Assay results: US20230113802A1, “COMPOSITION AND METHOD TO PREPARE LONG-ACTING INJECTABLE SUSPENSION CONTAINING MULTIPLE CANCER DRUGS” (University of Washington, priority 2020, published 2023)
# “And” between values parts separate entries of the source, which are not always exact repeats. Identical values can stand only once.
# Assay: Drug association efficiency (AE %) of GT DcNPs by dialysis under sink conditions
# Format: physicochemical
# Settings: in vitro dialysis under sink conditions, 4 h, batches 1-5 and average
# Description: Ethanol was removed by controlled solvent evaporation at 60° C., followed by vacuum desiccation to remove residual solvent. The dry film was rehydrated to 100 mM lipids in 0.45% NaCl with 20 mM NaHCO3 buffer at 60° C. for 2 h. Particle size was reduced at ˜40° C. using a bath sonicator (Avanti Polar Lipids, Inc. Alabaster, Ala.) (5 min on, […], 3 cycles). GT DcNP formulations were stored at room temperature for further use. Particle size was determined by a NICOMP 380 ZLS (Particle Sizing Systems, Santa Barbara, Calif.). Drug extraction with acetonitrile followed by HPLC were used to quantify drugs in formulations. Drug association was measured by dialysis (6-8 kDa) of DcNP against 0.9% NaCl 20 mM NaHCO3 buffer for 4 h and quantification by HPLC.
# Drug association efficiency (AE %) was determined by dialyzing 100 μl of the DcNP suspension (6-8 k MWCO) against 1000×volume (100 mL, pH=7.4) of bicarbonate buffered saline for 4 hours at room temperature. Drugs were extracted by acetonitrile and drug concentrations in pre and post-dialysis DcNP suspensions were measured with a Shimadzu HPLC-UV system (Kyoto, Japan). Chromatographic separation was achieved using a Kinetex C18 column (100 Å, 5 μm, 4.6 mm×100 mm) (Phenomenex, Torrance, Calif.). The flow rate was set to 1.0 mL/min with a 10 μl sample injection volume. The mobile phase for separation consisted of pump A (Acetonitrile) and B (10 mM Ammonium Acetate in water). The gradient program used was as follows: pump B was set to 40%, and increased to 100% over 5 minutes. […] AE % was calculated as the […] concentrations of G or T.
structure (smiles),measurement,setting,value
"Nc1ccn([C@@H]2O[C@H](CO)[C@@H](O)C2(F)F)c(=O)n1 [Gemcitabine, 4-amino-1-[(2R,4R,5R)-3,3-difluoro-4-hydroxy-5-(hydroxymethyl)oxolan-2-yl]pyrimidin-2-one]",AE % (association efficiency of drug to DcNP),,9%
same,AE % (association efficiency of drug to DcNP),listed as G,9% and 9±1%
same,AE % (association efficiency of drug to DcNP),listed as GEM,10% and 8% and 7%
same,AE % (association efficiency of drug to DcNP),"listed as GEM, mean",9%
